Usually IC50 stands for the concentration at which inhibition is half-maximal.

Counter-ions that a name gives are not always drawn.

In assay [1] the test system is pooled normal human plasma. The experiment in a line: Ex vivo anticoagulant effect: activated partial thromboplastin time (APTT) in plasma. The class given is biochemical. As for the experimental part: FIG. 6 depicts the anticoagulant effect of [3-[(benzylsulfonyl)amino]-2-oxo-1,2-dihydropyridyl] acetyl-L-arginal measured in citrated human plasma, closed circles (l), using the activated partial thromboplastin time (APTT) assay. […] The data is the mean of two independent determinations.
The ex vivo anticoagulant effect of [3-[(benzylsulfonyl)amino]-2-oxo-1,2-dihydropyridyl]acetyl-L-argininal was determined by measuring the prolongation of the activated partial thromboplastin time (APTT) over a broad concentration range of the added inhibitor, using pooled normal human plasma. Fresh frozen citrated pooled normal human plasma was obtained from George King Biomedical, Overland Park, Kans. Measurements of APTT were made using the Coag-A-Mate RA4 automated coagulometer (General Diagnostics, Organon Technica, Oklahoma City, Okla.) using the Platelin® L reagent (Organon Technica, Durham, N.C.) as the initiator of clotting according to the manufacturer's instructions. The assay was conducted by making a series of dilutions of the test compounds in rapidly thawed plasma followed by adding 200 microliters to the wells of the assay carousel.

The next assay addresses T1, human alpha thrombin (Homo sapiens, UniProt P00734).
T1 construct: Purified human alpha-thrombin; purchased Enzyme Research Laboratories, Inc
As to the kind of experiment: Thrombin (fIIa) IC50 assay, chromogenic substrate Pefachrome t-PA. The assay is classed as biochemical. As for the experimental part:
(§1) The ability of compounds of the present invention to act as a selective inhibitor of thrombin catalytic activity was assessed by determining the concentration of compound which inhibited the activity of this enzyme by 50%, (IC50), and comparing this value to that determined for all or some of the following related serine proteases: recombinant tissue plasminogen activator (rt-PA), plasmin, activated protein C, chymotrypsin, factor Xa and trypsin.
(§2) The buffer used for all assays was HBSA (10 mM HEPES, pH 7.5, 150 mM sodium chloride, 0.1% bovine serum albumin).
(§3) The assay for IC50 determinations was conducted by combining in appropriate wells of a Corning microtiter plate, 50 microliters of HBSA, 50 microliters of the test compound at a specified concentration (covering a broad concentration range) diluted in HBSA (or HBSA alone for VO (uninhibited velocity) measurement), and 50 microliters of the enzyme diluted in HBSA. Following a 30 minute incubation at ambient temperature, 50 microliters of the substrate at the concentrations specified below were added to the wells, yielding a final total volume of 200 microliters. The initial velocity of chromogenic substrate hydrolysis was measured by the change in absorbance at 405 nm using a Thermo Max® Kinetic Microplate Reader over a 5 minute period in which less than 5% of the added substrate was utilized. The concentration of added inhibitor which caused a 50% decrease in the initial rate of hydrolysis was defined as the IC50 value.
Enzyme activity was determined using the chromogenic substrate, Pefachrome t-PA (CH3SO2-D-hexahydrotyrosine-glycyl-L-Arginine-p-nitroaniline, obtained from Pentapharm Ltd.). The substrate was reconstituted in deionized water prior to use. Purified human a-thrombin was obtained from Enzyme Research Laboratories, Inc. The buffer used for all assays was HBSA (10 mM HEPES, pH 7.5, 150 mM sodium chloride, 0.1% bovine serum albumin).
IC50 determinations were conducted where HBSA ([…]), a-thrombin (50 μl) and inhibitor (50 μl) (covering a broad concentration range), were combined in appropriate wells and incubated for 30 minutes at room temperature prior to the addition of substrate Pefachrome-t-PA (50 μl). The initial velocity of Pefachrome t-PA hydrolysis was measured by the change in absorbance at 405 nm using a Thermo Max® Kinetic Microplate Reader over a 5 minute period in which less than 5% of the added substrate was utilized. The concentration of added inhibitor which caused a 50% decrease in the initial rate of hydrolysis was defined as the IC50 value.

The target of another assay is T2, Human rt-PA (Activase) (Homo sapiens, UniProt P00750).
T2 construct: purchased Genentech Inc
T2 sequence (P00750 36-562): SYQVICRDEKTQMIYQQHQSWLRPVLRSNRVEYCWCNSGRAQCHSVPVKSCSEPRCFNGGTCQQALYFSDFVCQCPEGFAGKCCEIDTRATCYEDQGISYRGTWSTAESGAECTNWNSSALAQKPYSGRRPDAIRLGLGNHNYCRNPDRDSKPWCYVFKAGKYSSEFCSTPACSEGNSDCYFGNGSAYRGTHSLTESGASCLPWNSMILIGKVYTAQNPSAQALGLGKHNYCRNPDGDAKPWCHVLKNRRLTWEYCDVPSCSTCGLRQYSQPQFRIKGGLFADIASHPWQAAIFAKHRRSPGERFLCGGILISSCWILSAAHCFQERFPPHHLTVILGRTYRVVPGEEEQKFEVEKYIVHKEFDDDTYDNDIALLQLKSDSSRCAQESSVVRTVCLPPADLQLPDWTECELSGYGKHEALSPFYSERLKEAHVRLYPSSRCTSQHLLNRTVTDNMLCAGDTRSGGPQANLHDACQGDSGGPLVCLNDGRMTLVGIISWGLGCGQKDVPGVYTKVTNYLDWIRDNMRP
As to the kind of experiment: biochemical. The note with it: 30 minute incubation; 1.0 nM enzyme; read-out: IC50 rt-PA (Table 2). The method, then:
as §1, §2, §3
Recombinant Tissue Plasminogen Activator (rt-PA) Assay
rt-PA catalytic activity was determined using the substrate, Pefachrome t-PA (CH3SO2-D-hexahydrotyrosine-glycyl-L-arginine-p-nitroaniline, obtained from Pentapharm Ltd.). The substrate was made up in deionized water followed by dilution in HBSA prior to the assay in which the final concentration was 500 micromolar (about 3-times Km). Human rt-PA (Activase®) was obtained from Genentech Inc. The enzyme was reconstituted in deionized water and diluted into HBSA prior to the assay in which the final concentration was 1.0 nM.

Consider `N=C(N)NCCC[C@@H](C=O)NC(=O)Cn1cccc(NS(=O)(=O)Cc2ccccc2)c1=O` [Example 10, [3-[(benzylsulfonyl)amino]-2-oxo-1,2-dihydropyridyl]acetyl-L-argininal, trifluoroacetate salt], for which the “concentration which caused a doubling of the control clotting time (APTT)” value in assay [1] (citrated human plasma, control clotting time 29 seconds, mean of two independent determinations) was found to be 7.7 µM. The “prolongation of the APTT” value in assay [1] (pooled normal human plasma, broad concentration range) is reported as “prolonged the APTT in a dose dependent manner”. For the same molecule, the figures for the half-maximal inhibitory concentration (IC50) against human alpha thrombin and on Human rt-PA (Activase) were 0.66 nM and more than 2500 nM, respectively.
